Data taken from patent US20100004333A1, “COMPOSITIONS AND METHODS FOR TREATING CARDIOVASCULAR DISORDERS” (priority 2004, published 2010).

Columns and labels:
[1] = Oxidation of probucol or DTBP in hexane by 1e- and 2e-oxidants (HPLC, ion exchange chromatography); format: physicochemical; settings: for Depletion: compound 1 mM in hexane, 60 min, 37° C.; for SO4^2− in aqueous phase of reaction mixture: oxidized with 5-mol equivalent HOCl, antioxidant-free mixture 58±5 nmol
Procedure: All other reagents were of the highest quality available. Buffers were routinely filtered, argon-flushed and stored at 4° C. prior to use. Solutions of HOCl were prepared freshly before use by diluting reagent HOCl (Aldrich) into phosphate buffer (250 mM, pH 7.0) and standardizing with ε235 nm˜100 M^−1cm^−1 (hypochlorous acid) and ε290 nm˜300 M^−1cm^−1 (hypochlorite), as described in Journal of Physical Chemistry 1966, 70:3798-3805. Animals: New Zealand White rabbits (2.5-3 kg) were obtained from a commercial farm (Wauchope, NSW Australia) and housed individually for the entire study period. […] Feed and water were provided ad libitum for a period of 4 weeks judged to be sufficient time for circulating drug levels to reach a maximum (data not shown). […] The local ethics committee approved the study. Vascular reactivity: Perfused rabbit aortas were harvested and vascular reactivity studies performed as described in Circulation 2003, 107:2031-2036. Briefly, within 2 h of isolation, ring segments ˜5 mm in length were mounted in a myobath system (World Precision Instruments, Sarasota, Fla.) containing 20 mL of Krebs solution aerated at 37° C. with 5% CO2(g), and the dilatory response of half maximally norepinephrine pre-constricted rings to incremental doses of ACh (10^−9-10^−5 mol/L) determined. Where indicated, reagent HOCl (final concentration 400 μM) was added to the Krebs solution and the rings incubated for 5 min prior to thorough washing, pre-constriction and assessment of vessel relaxation. In some studies rings were incubated with probucol or DTBP for 10 min, washed thoroughly and then exposed to HOCl prior to assessing endothelium-dependent relaxation. A maximum of three consecutive sequences of constriction/relaxation were performed for each ring. Preparation of Aortic Homogenates: Aortic Rings Used in the Vascular Function Studies were removed and immediately cut into small pieces, frozen in liquid nitrogen, and then pulverized and homogenized as described. An aliquot (50 μL) of homogenate was removed for protein determination (BCA assay, Sigma) and the remainder extracted into methanol/hexane (5:1, v/v), the resulting hexane fraction dried and the residue suspended in isopropanol for analysis of probucol and its oxidation products. For cGMP determinations, aortic segments were treated with vehicle (control) or HOCl (400 μM) before addition of 1 μM ACh in the presence of 200 μM 3-isobutyl-1-methylxanthine and measurement of cGMP in the homogenate using a kit (Cayman Chemical, Ann Arbor, Mich.). Probucol oxidation studies: Probucol is a highly lipophilic compound (partition coefficient between octanol and water=[…]) that readily distributes into lipoproteins. To mimic the biological situation, oxidation reactions were therefore performed with probucol (or DTBP) dissolved in hexane (2 mL) to which aliquots of HOCl were added to give the final concentrations indicated. The heterogeneous mixtures were shaken vigorously at 37° C. for 60 min, then placed on ice after adding 1 mL water, the hexane phase removed, dried under vacuum and resuspended in isopropanol (200 μL) for HPLC analyses (see below). The aqueous phase was analyzed for the content of sulfate anion (SO4^2−) by ion exchange chromatography (see below). Analytical analyses: Probucol, DTBP, BP and DPQ were analyzed by gradient reversed-phase HPLC and quantified by peak area comparison with authentic standards. Under the conditions used, BP, DTBP, probucol and DPQ eluted at 12.5, 19.2, 20.8 and 28.4 min, respectively. Other oxidation products resolved by this HPLC system were also quantified by peak area comparison, using analytically pure samples obtained from semi-preparative (LC-18, 20 mm×25 cm, 5 μm) fractionation of the reaction mixture. Isolated samples were dried under vacuum, re-dissolved to a known concentration and assessed for purity by analytical HPLC (LC-18, 4.6 mm×25 cm, 5 μm) in combination with mass spectrometry (see below). […]

[2] = Stopped-flow kinetics of reaction with HOCl in 70% aqueous ethanol; format: physicochemical; settings: 70% EtOH, 25° C.
[3] = test system: New Zealand White rabbits; assay: Rabbit aortic balloon-injury model: intimal hyperplasia; format: in vivo; settings: for Intimal thickening / intima-to-media ratio after aortic balloon injury: 1% probucol, 0.02% DTBP, 0.02% BP, FIG. 13a, b; for Plasma total cholesterol concentration: rabbits, FIG. 13e
Procedure: Rabbit aortic balloon-injury model. Four groups of male New Zealand White rabbits (1.8-2.2 kg, Merunga Farm, Coffs Harbour, Australia), matched for body weight and baseline plasma cholesterol, were fed 100 g per day of normal chow±1% probucol, 0.02% DTBP, or 0.02% BP (wt/wt) for up to nine weeks. Aortic balloon-injury (ABI) was carried out at the end of week three, resulting in complete endothelial denudation. Harvesting of aortas was done after a further 6 weeks (n=6 per group). Aortic lesion assessment was carried out at the 3rd pair of lumber arteries in NZW rabbits as described in Circulation 2003, 107:2031-2036. Statistics. Data are expressed as mean±SEM. One-way ANOVA and the student-Newman-Keul's test were used to evaluate differences between groups, with P<0.05 considered significant.
Materials and methods were as described in Examples 6 and 7, with the following addition. DTBP-s and STBP were synthesized as described in Example 10. A total of 48 New Zealand White rabbits (1.8-2.2 kg) were used for this example. Rabbits were fed normal chow (100 g/day) without (Ctrl, n=12) or with 0.02% DTBP (wt/wt, n=6), 0.02% STBP (wt/wt, n=7), 0.02% DTBP-s (wt/wt, n=11) or 0.1% DTBP-s (wt/wt, n=7) for 9 weeks. Aortic balloon-injury was carried out at the end of week three.

[4] = test system: New Zealand White rabbits; assay: Apoptosis (TUNEL) and proliferation (PCNA) of vascular cells after aortic balloon injury in rabbits; format: in vivo; settings: for Cell proliferation (PCNA+ cells): FIG. 16e; for Apoptosis (TUNEL+ cells): FIG. 16d
Source text: Materials and methods were as described in Example 6, except that for some experiments, aortas were also harvested 4 days (n=8 per group) after balloon injury. Sections immediately adjacent sections to those used for lesion assessment were employed for immunohistochemistry, using CD31 (endothelium, dilution 1:50, DAKO), Mac-3 (macrophages, dilution 1:200, DAKO), PCNA (cell proliferation, dilution 1:500, DAKO) and anti-rat HO-1 monoclonal antibody (dilution 1:50, Santa Cruz) with avidin-biotin-horseradish peroxidase for signal detection (Vectorstain Elite ABC Kit, Vector Laboratories). Apoptosis was assessed using the TUNEL assay kit (Roche) according to the manufacture's instructions. Digital images were taken for quantitative morphometric analysis. Intimal, medial and Mac-3^+ areas were determined using Adobe Photoshop V6.0 by tracing. Re-endothelialization was determined in longitudinal sections as the distance of CD31^+ cells from the branch orifice using Scion Image Software (Scion, ML, USA). Total cell profiles, TUNEL^+ and PCNA^+ cells were counted manually at high magnification (40× objective).

[5] = day 4 after aortic balloon injury
[6] = day 42 after aortic balloon injury

## CC(C)(C)c1cc(SSc2cc(C(C)(C)C)c(O)c(C(C)(C)C)c2)cc(C(C)(C)C)c1O [DTBP, 4,4′-dithiobis(2,6-di-tert-butyl-phenol)]
[1]; oxidant AAPH 5 mM
  Depletion: 0 ± 0%
[1]; oxidant HOCl 5 mM, air
  Depletion: 96 ± 3%
[1]
  SO4^2− in aqueous phase of reaction mixture: 204 ± 43 nmol
[2]
  Rate constant k for oxidation by HOCl (single rate-determining process): 0.7±0.1×10^2 M^−1 s^−1
[3]; 0.02% wt/wt in chow, 9 weeks, ABI at end of week three, FIG. 21
  Protection against balloon injury-induced intimal hyperplasia: significant protection
[3]; 6 weeks after ABI
  Intimal thickening / intima-to-media ratio after aortic balloon injury: significantly decreasing
[3]; 6 weeks after ABI, FIG. 13c
  Vessel content of non-oxidized lipid: without altering
[3]; 6 weeks after ABI, FIG. 13d
  Vessel content of oxidized lipid: without altering
[3]; I/M ratio 6 weeks after ABI, FIG. 14
  Protection against balloon injury-induced intimal hyperplasia, dependence on concentration: in a concentration-dependent manner
[3]; from relative aortic drug concentrations and in vivo protection
  Activity on a molar base relative to probucol: more active than probucol
[3]
  Plasma total cholesterol concentration: without effect
[4]; day 4 after ABI
  Cell proliferation (PCNA+ cells): not day 4
[4]; [5]
  Apoptosis (TUNEL+ cells): significantly enhanced apoptosis
[4]; day 42 after ABI
  Cell proliferation (PCNA+ cells): significant decrease in cell proliferation
[4]; [6]
  Apoptosis (TUNEL+ cells): not at day 42

## CC(C)(C)c1cc(-c2cc(C(C)(C)C)c(O)c(C(C)(C)C)c2)cc(C(C)(C)C)c1O [BP, 3,3′,5,5′-tetra-tert-butyl-4,4′-bisphenol]
[3]; 6 weeks after ABI
  Intimal thickening / intima-to-media ratio after aortic balloon injury: lacked protective activity
[3]
  Plasma total cholesterol concentration: significantly reduced
[4]; [5]
  Apoptosis (TUNEL+ cells): not BP

## CC(C)(Sc1cc(C(C)(C)C)c(O)c(C(C)(C)C)c1)Sc1cc(C(C)(C)C)c(O)c(C(C)(C)C)c1 [probucol]
[1]; oxidant AAPH 5 mM
  Depletion: 0 ± 0%
[1]; oxidant HOCl 5 mM, air
  Depletion: > 90%
[1]
  SO4^2− in aqueous phase of reaction mixture: 139 ± 14 nmol
[2]
  Rate constant k1 for oxidation by HOCl (rapid phase of DPQ accumulation): 2.7±0.3×10^2 M^−1 s^−1
  Rate constant k2 for oxidation by HOCl (slow phase of DPQ accumulation): 0.7±0.2×10^2 M^−1 s^−1
[3]; 6 weeks after ABI
  Intimal thickening / intima-to-media ratio after aortic balloon injury: Inhibit Intimal Thickening
[3]
  Plasma total cholesterol concentration: significantly reduced
[4]; day 4 after ABI
  Cell proliferation (PCNA+ cells): not day 4
[4]; [5]
  Apoptosis (TUNEL+ cells): significantly enhanced apoptosis
[4]; day 42 after ABI
  Cell proliferation (PCNA+ cells): significant decrease in cell proliferation
[4]; [6]
  Apoptosis (TUNEL+ cells): not at day 42
